Results reported in ChEMBL document CHEMBL1127423, “An evaluation of the antirhinoviral activity of acetylfuran replacements for 3-methylisoxazoles. Are 2-acetylfurans bioisosteres for 3-methylisoxazoles?” (J Med Chem, 1994).
Values after ≈ are worked out from the molar mass of the structure shown. Active and inactive are the calls of the source. The calls are words filed in the database; no cut-off is given here.

Assays:
Human rhinovirus sp. [1] = test: Tested for in vitro antiviral activity against Human rhinovirus (HRV)-14; type: functional
Human rhinovirus sp. [2] = test: Antirhinoviral activity calculated for mean of fifteen serotypes (HRV-1A, -1B, -2, -6, -14, -15, -21, -22, -25, -30, -41, --50, -67, -86, -89); type: functional
Human rhinovirus sp. [3] = test: Compound was tested in vitro for minimal inhibitory constant against 80% of fifteen human rhinovirus serotypes
Human rhinovirus sp. [4] = test: Compound was tested in vitro for minimal inhibitory constant against HRV-14; inactive against HRV-1A, -6, -14,-67; type: functional, organism-based
Human rhinovirus sp. [5] = test: Antirhinoviral activity calculated for mean of fifteen serotypes (HRV-1A, -1B, -2, -6, -14, -15, -21, -22, -25, -30, -41, --50, -67, -86, -89); inactive against HRV-1A, -6, -14,-67; type: functional, organism-based
Human rhinovirus sp. [6] = test: Tested for in vitro antiviral activity against Human rhinovirus (HRV)-14; inactive against HRV-1A, -6, -14,-67; type: functional, organism-based
[7] = Partition coefficient (logP) (HPLC); type: physicochemical; settings: octanol/water
Human rhinovirus sp. [8] = test: Compound was tested in vitro for minimal inhibitory constant against HRV-14; IA= Inactive; type: functional, organism-based
Human rhinovirus sp. [9] = test: tested for in vitro antiviral activity against Human rhinovirus (HRV)-14; type: functional
Human rhinovirus sp. [10] = test: Antirhinoviral activity calculated for mean of fifteen serotypes (HRV-1A, -1B, -2, -6, -14, -15, -21, -22, -25, -30, -41, --50, -67, -86, -89); inactive against HRV-6,-41,-67,-86; type: functional, organism-based
Human rhinovirus sp. [11] = test: Compound was tested in vitro for minimal inhibitory constant against HRV-14; high capacity tissue culture infectious dose; type: functional, organism-based
Human rhinovirus sp. [12] = test: tested for minimal inhibitory concentration against Human rhinovirus serotype 15 by plaque reduction assay; type: functional
Human rhinovirus sp. [13] = test: tested for minimal inhibitory concentration against Human rhinovirus serotype 67 by plaque reduction assay; type: functional
Human rhinovirus sp. [14] = test: tested for minimal inhibitory concentration against Human rhinovirus serotype 89 by plaque reduction assay; type: functional
Human rhinovirus sp. [15] = test: tested for minimal inhibitory concentration against Human rhinovirus serotype 14 by plaque reduction assay; type: functional
Human rhinovirus sp. [16] = test: tested for minimal inhibitory concentration against Human rhinovirus serotype 41 by plaque reduction assay; type: functional
Human rhinovirus sp. [17] = test: tested for minimal inhibitory concentration against Human rhinovirus serotype 50 by plaque reduction assay; type: functional
Human rhinovirus sp. [18] = test: tested for minimal inhibitory concentration against Human rhinovirus serotype 6 by plaque reduction assay; type: functional
Human rhinovirus sp. [19] = test: tested for minimal inhibitory concentration against Human rhinovirus serotype 21 by plaque reduction assay; type: functional
Human rhinovirus sp. [20] = test: tested for minimal inhibitory concentration against Human rhinovirus serotype 22 by plaque reduction assay; type: functional
Human rhinovirus sp. [21] = test: tested for minimal inhibitory concentration against Human rhinovirus serotype 25 by plaque reduction assay; type: functional
Human rhinovirus sp. [22] = test: tested for minimal inhibitory concentration against Human rhinovirus serotype 30 by plaque reduction assay; type: functional
Human rhinovirus sp. [23] = test: tested for minimal inhibitory concentration against Human rhinovirus serotype 1A by plaque reduction assay; type: functional
Human rhinovirus sp. [24] = test: tested for minimal inhibitory concentration against Human rhinovirus serotype 2 by plaque reduction assay; type: functional
Human rhinovirus sp. [25] = test: tested for minimal inhibitory concentration against Human rhinovirus serotype 1B by plaque reduction assay; type: functional
Human rhinovirus sp. [26] = test: tested for minimal inhibitory concentration against Human rhinovirus serotype 86 by plaque reduction assay; type: functional
Human rhinovirus sp. [27] = test: Tested for minimal inhibitory concentration against Human rhinovirus serotype 15 by plaque reduction assay; type: functional
Human rhinovirus sp. [28] = test: Tested for minimal inhibitory concentration against Human rhinovirus serotype 67 by plaque reduction assay; type: functional
Human rhinovirus sp. [29] = test: Tested for minimal inhibitory concentration against Human rhinovirus serotype 86 by plaque reduction assay; type: functional
Human rhinovirus sp. [30] = test: Tested for minimal inhibitory concentration against Human rhinovirus serotype 89 by plaque reduction assay; type: functional
Human rhinovirus sp. [31] = test: Tested for minimal inhibitory concentration against Human rhinovirus serotype 41 by plaque reduction assay; inactive; type: functional, organism-based
Human rhinovirus sp. [32] = test: Tested for minimal inhibitory concentration against Human rhinovirus serotype 50 by plaque reduction assay; type: functional
Human rhinovirus sp. [33] = test: Tested for minimal inhibitory concentration against Human rhinovirus serotype 6 by plaque reduction assay; type: functional
Human rhinovirus sp. [34] = test: Tested for minimal inhibitory concentration against Human rhinovirus serotype 14 by plaque reduction assay; type: functional
Human rhinovirus sp. [35] = test: Tested for minimal inhibitory concentration against Human rhinovirus serotype 21 by plaque reduction assay; type: functional
Human rhinovirus sp. [36] = test: Tested for minimal inhibitory concentration against Human rhinovirus serotype 22 by plaque reduction assay; type: functional
Human rhinovirus sp. [37] = test: Tested for minimal inhibitory concentration against Human rhinovirus serotype 25 by plaque reduction assay; inactive; type: functional, organism-based
Human rhinovirus sp. [38] = test: Tested for minimal inhibitory concentration against Human rhinovirus serotype 1A by plaque reduction assay; type: functional
Human rhinovirus sp. [39] = test: Tested for minimal inhibitory concentration against Human rhinovirus serotype 1B by plaque reduction assay; inactive; type: functional, organism-based
Human rhinovirus sp. [40] = test: Tested for minimal inhibitory concentration against Human rhinovirus serotype 2 by plaque reduction assay; type: functional
Human rhinovirus sp. [41] = test: Tested for minimal inhibitory concentration against Human rhinovirus serotype 30 by plaque reduction assay; type: functional

SMILES | Activity (Human rhinovirus sp. [1]) [µM] | Activity (Human rhinovirus sp. [2]) [µM] | MIC80 (Human rhinovirus sp. [3]) [µM] | logP [7] | further results
Cc1cc(CCCOc2c(C)cc(-c3noc(C)n3)cc2C)on1 | 0.2 | 0.1 | 0.2 (≈ 0.0655 µg/mL) |  | 
Cc1ccc(CCCOc2c(C)cc(-c3noc(C)n3)cc2C)o1 |  |  |  |  | Activity (Human rhinovirus sp. [4]): inactive; Activity (Human rhinovirus sp. [5]): inactive; Activity (Human rhinovirus sp. [6]): inactive
Cc1cc(-c2nnn(C)n2)cc(C)c1OCCCCCc1ccc(C=O)o1 |  |  |  | 3.5 | Activity (Human rhinovirus sp. [5]): inactive; MIC80 (Human rhinovirus sp. [8]): inactive; Activity (Human rhinovirus sp. [9]): 27 µM
Cc1cc(CCCCCOc2c(Cl)cc(C3=NCCO3)cc2Cl)on1 [WIN-54954] | 2.3 | 0.7 | 0.9 (≈ 0.345 µg/mL) | 4.6 | 
CC(=O)c1ccc(CCCOc2c(C)cc(-c3noc(C)n3)cc2C)o1 | 0.5 | 0.2 | 0.4 (≈ 0.142 µg/mL) |  | 
CC(=O)c1ccc(CCCCCOc2c(Br)cc(C3=NCCO3)cc2Br)o1 | 3.3 | 0.7 | 0.9 (≈ 0.449 µg/mL) |  | 
CC(=O)c1ccc(CCCCCOc2c(Cl)cc(C3=NCCO3)cc2Cl)o1 | 2 | 0.5 | 0.7 (≈ 0.287 µg/mL) | 4.6 | 
Cc1cc(CCCCCOc2c(Br)cc(C3=NCCO3)cc2Br)on1 | 2 | 0.6 | 1.4 (≈ 0.661 µg/mL) |  | 
Cc1cc(CCCOc2c(C)cc(-c3nnn(C)n3)cc2C)on1 | 1.7 | 0.5 | 0.4 (≈ 0.131 µg/mL) | 3.2 | 
Cc1ccc(CCCOc2c(C)cc(-c3nnn(C)n3)cc2C)o1 | 30 |  |  |  | Activity (Human rhinovirus sp. [10]): inactive; MIC80 (Human rhinovirus sp. [11]): high capacity tissue culture infectious dose
CC(=O)c1ccc(CCCCCOc2c(C)cc(-c3nnn(C)n3)cc2C)o1 | 1.2 | 0.6 | 0.8 (≈ 0.306 µg/mL) | 3.7 | 
Cc1cc(CCCCCOc2c(C)cc(-c3nnn(C)n3)cc2C)on1 | 0.8 | 0.5 | 0.6 (≈ 0.213 µg/mL) | 3.6 | 
CC(=O)c1ccc(CCCOc2c(C)cc(-c3nnn(C)n3)cc2C)o1 | 0.5 | 0.3 | 0.5 (≈ 0.177 µg/mL) | 3.2 | 
CC(=O)c1ccc(CCCCCOc2ccc(C3=NCCO3)cc2)o1 | 1.1 | 0.9 | 1 (≈ 0.341 µg/mL) |  | MIC (Human rhinovirus sp. [12]): 0.7 µM (≈ 0.239 µg/mL); MIC (Human rhinovirus sp. [13]): 1 µM (≈ 0.341 µg/mL); MIC (Human rhinovirus sp. [14]): 0.05 µM (≈ 0.0171 µg/mL); MIC (Human rhinovirus sp. [15]): 1 µM (≈ 0.341 µg/mL); MIC (Human rhinovirus sp. [16]): 2.2 µM (≈ 0.751 µg/mL); MIC (Human rhinovirus sp. [17]): 0.2 µM (≈ 0.0683 µg/mL); MIC (Human rhinovirus sp. [18]): 0.3 µM (≈ 0.102 µg/mL); MIC (Human rhinovirus sp. [19]): 0.4 µM (≈ 0.137 µg/mL); MIC (Human rhinovirus sp. [20]): 1.6 µM (≈ 0.546 µg/mL); MIC (Human rhinovirus sp. [21]): 4.5 µM (≈ 1.54 µg/mL); MIC (Human rhinovirus sp. [22]): 0.1 µM (≈ 0.0341 µg/mL); MIC (Human rhinovirus sp. [23]): 0.2 µM (≈ 0.0683 µg/mL); MIC (Human rhinovirus sp. [24]): 0.5 µM (≈ 0.171 µg/mL); MIC (Human rhinovirus sp. [25]): 0.3 µM (≈ 0.102 µg/mL); MIC (Human rhinovirus sp. [26]): 0.4 µM (≈ 0.137 µg/mL)
Cc1cc(CCCCCOc2ccc(C3=NCCO3)cc2)on1 | 0.7 |  | 7 (≈ 2.2 µg/mL) |  | MIC (Human rhinovirus sp. [27]): 1.5 µM (≈ 0.472 µg/mL); MIC (Human rhinovirus sp. [28]): 2.4 µM (≈ 0.755 µg/mL); MIC (Human rhinovirus sp. [29]): 0.1 µM (≈ 0.0314 µg/mL); Activity (Human rhinovirus sp. [5]): inactive; MIC (Human rhinovirus sp. [30]): 0.4 µM (≈ 0.126 µg/mL); MIC (Human rhinovirus sp. [31]): inactive; MIC (Human rhinovirus sp. [32]): 1.5 µM (≈ 0.472 µg/mL); MIC (Human rhinovirus sp. [33]): 0.06 µM (≈ 0.0189 µg/mL); MIC (Human rhinovirus sp. [34]): 0.7 µM (≈ 0.22 µg/mL); MIC (Human rhinovirus sp. [35]): 1.2 µM (≈ 0.377 µg/mL); MIC (Human rhinovirus sp. [36]): 0.9 µM (≈ 0.283 µg/mL); MIC (Human rhinovirus sp. [37]): inactive; MIC (Human rhinovirus sp. [38]): 7 µM (≈ 2.2 µg/mL); MIC (Human rhinovirus sp. [39]): inactive; MIC (Human rhinovirus sp. [40]): 1.1 µM (≈ 0.346 µg/mL); MIC (Human rhinovirus sp. [41]): 0.3 µM (≈ 0.0943 µg/mL)
